Assay results from ChEMBL document CHEMBL2440117, “Improved inhibitory activities against tumor-cell migration and invasion by 15-benzylidene substitution derivatives of andrographolide” (Bioorg Med Chem Lett, 2013).
pIC50: −log10 of the molar value. Active and inactive are the calls of the source. The rule behind the calls is not given here.

Experiments:
[1] = test system: SGC-7901; experiment: Cytotoxicity against human SGC7901 cells assessed as growth inhibition at 10 uM after 48 hrs by MTT assay relative to control; format: functional, cell-based
[2] = test system: SGC-7901; experiment: Antimigratory activity against human SGC7901 cells at 10 uM after 12 to 48 hrs by wound-healing assay relative to control; format: functional
[3] = test system: PC-3; experiment: Cytotoxicity against human PC3 cells assessed as growth inhibition at 10 uM after 48 hrs by MTT assay relative to control; format: functional; details: for inhibition of growth at 10 µM: PC-3, 48 h, read-out: GI
[4] = test system: PC-3; experiment: Antimigratory activity against human PC3 cells at 10 uM after 12 to 48 hrs by wound-healing assay relative to control; format: functional
[5] = test system: 5637; experiment: Antimigratory activity against human 5637 cells at 5 uM after 12 to 48 hrs by wound-healing assay relative to control; format: functional
[6] = test system: 5637; experiment: Cytotoxicity against human 5637 cells assessed as growth inhibition at 5 uM after 48 hrs by MTT assay relative to control; format: functional; details: Homo sapiens, 5637, 48 h; read-out: GI
[7] = test system: HT-29; experiment: Cytotoxicity against human HT-29 cells assessed as growth inhibition at 10 uM after 48 hrs by MTT assay; format: functional, cell-based
[8] = test system: A549; experiment: Antimigratory activity against human A549 cells at 10 uM after 12 to 48 hrs by wound-healing assay relative to control; format: functional
[9] = (§1) Antimigratory activity against human EC109 cells at 10 uM after 12 to 48 hrs by wound-healing assay relative to control; format: functional; details: ECa-109
[10] = test system: HT-29; experiment: Antimigratory activity against human HT-29 cells at 10 uM after 12 to 48 hrs by wound-healing assay relative to control; format: functional
[11] = test system: A549; experiment: Cytotoxicity against human A549 cells assessed as growth inhibition at 10 uM after 48 hrs by MTT assay; format: functional, cell-based
[12] = test system: ECa-109; experiment: Cytotoxicity against human EC109 cells assessed as growth inhibition at 10 uM after 48 hrs by MTT assay; format: functional, cell-based
[13] = test system: SGC-7901; experiment: Antimigratory activity against human SGC7901 cells after 12 to 48 hrs by wound-healing assay; format: functional, cell-based
[14] = test system: 5637; experiment: Antimigratory activity against human 5637 cells at 10 uM after 12 to 48 hrs by wound-healing assay relative to control; format: functional
[15] = test system: 5637; experiment: Cytotoxicity against human 5637 cells assessed as growth inhibition at 10 uM after 48 hrs by MTT assay relative to control; format: functional, cell-based
[16] = test system: A549; experiment: Antimigratory activity against human A549 cells after 12 to 48 hrs by wound-healing assay; format: functional, cell-based
[17] = test system: SGC-7901; experiment: Downregulation of MMP-2 protein expression in human SGC7901 cells at 10 uM after 72 hrs by microscopic analysis; format: functional, cell-based
[18] = test system: SGC-7901; experiment: Downregulation of MMP-7 protein expression in human SGC7901 cells at 2.5 to 10 uM after 72 hrs by microscopic analysis; format: functional, cell-based
[19] = test system: SGC-7901; experiment: Downregulation of MMP-7 mRNA expression in human SGC7901 cells at 1.25 to 10 uM after 48 hrs by semi-quantitative RT-PCR analysis; format: functional, cell-based
[20] = test system: SGC-7901; experiment: Downregulation of MMP-9 mRNA expression in human SGC7901 cells at 1.25 to 2.5 uM after 48 hrs by semi-quantitative RT-PCR analysis; format: functional, cell-based
[21] = test system: SGC-7901; experiment: Downregulation of MMP-2 mRNA expression in human SGC7901 cells at 1.25 uM after 48 hrs by semi-quantitative RT-PCR analysis; format: functional, cell-based
[22] = test system: SGC-7901; experiment: Downregulation of MMP-9 protein expression in human SGC7901 cells at 2.5 to 10 uM after 72 hrs by microscopic analysis; format: functional, cell-based
[23] = test system: SGC-7901; experiment: Antiinvasive activity against human SGC7901 cells after 24 hrs by matrigel invasion assay; format: functional, cell-based; details: SGC-7901, 24 h
[24] = test system: 5637; experiment: Antimigratory activity against human 5637 cells after 12 to 48 hrs by wound-healing assay; format: functional, cell-based
[25] = Antimigratory activity against human EC109 cells at 5 uM after 12 to 48 hrs by wound-healing assay relative to control; format: functional; details: ECa-109
[26] = test system: HT-29; experiment: Antimigratory activity against human HT-29 cells after 12 to 48 hrs by wound-healing assay; format: functional, cell-based
[27] = test system: PC-3; experiment: Antimigratory activity against human PC3 cells after 12 to 48 hrs by wound-healing assay; format: functional, cell-based
[28] = test system: A549; experiment: Antimigratory activity against human A549 cells at 5 uM after 12 to 48 hrs by wound-healing assay relative to control; format: functional
[29] = test system: SGC-7901; experiment: Downregulation of MMP-9 mRNA expression in human SGC7901 cells at 10 uM after 48 hrs by semi-quantitative RT-PCR analysis; format: functional, cell-based
[30] = test system: SGC-7901; experiment: Effect on MMP-2 mRNA expression in human SGC7901 cells at 10 uM after 48 hrs by semi-quantitative RT-PCR analysis; format: functional, cell-based
[31] = test system: ECa-109; experiment: as §1; format: functional
[32] = test system: SGC-7901; experiment: Antiinvasive activity against human SGC7901 cells at 5 to 10 uM after 24 hrs by matrigel invasion assay relative to control; format: functional, cell-based
[33] = test system: SGC-7901; experiment: Antiinvasive activity against human SGC7901 cells at 10 uM after 24 hrs by matrigel invasion assay relative to control; format: functional; details: SGC-7901, 24 h
[34] = test system: SGC-7901; experiment: Downregulation of MMP-7 mRNA expression in human SGC7901 cells after 48 hrs by semi-quantitative RT-PCR analysis; format: functional, cell-based
[35] = test system: 5637; experiment: Antimigratory activity against human 5637 cells at 2.5 uM after 12 to 48 hrs by wound-healing assay; format: functional, cell-based

| SMILES | growth inhibition (GI) [1] | inhibition [2] | growth inhibition (GI) [3] | inhibition [4] | inhibition at 5 µM [5] | inhibition of growth at 5 µM [6] | growth inhibition (GI) [7] | growth inhibition (GI) [11] | growth inhibition (GI) [12] | growth inhibition (GI) [15] | also measured |
| --- | --- | --- | --- | --- | --- | --- | --- | --- | --- | --- | --- |
| C=C1CC[C@@H]2[C@]3(C)COCO[C@@H]3CC[C@@]2(C)[C@@H]1C/C=C1/C(=O)OC[C@H]1O | inactive | inactive | inactive | inactive | 36.3% | 25.3% | – | – | – | – | – |
| C=C1CC[C@@H]2[C@](C)(CO)[C@H](O)CC[C@@]2(C)[C@@H]1/C=C/C1=CC(=C/c2ccc(OC)cc2)/OC1=O | inactive | – | inactive | – | 17.9% | 33.7% | inactive | inactive | inactive | – | inhibition at 10 µM [8]: 35.1%; inhibition at 10 µM [9]: 41.3%; inhibition at 10 µM [2]: 48.5%; inhibition at 10 µM [10]: 38.7%; inhibition at 10 µM [4]: 34% |
| C=C1CC[C@@H]2[C@](C)(CO)[C@H](O)CC[C@@]2(C)[C@@H]1/C=C/C1=CC(=C/c2ccc(Br)cc2)/OC1=O | inactive | – | – | – | 27.9% | 33.6% | – | – | – | – | inhibition of growth at 10 µM [3]: 40.2%; inhibition at 10 µM [4]: 83.8%; pIC50 [13]: 5.07 |
| C=C1CC[C@@H]2[C@](C)(COC(=O)CCC(=O)O)[C@H](OC(=O)CCC(=O)O)CC[C@@]2(C)[C@@H]1/C=C/C1=CCOC1=O | inactive | inactive | inactive | inactive | – | – | – | – | – | inactive | inhibition [14]: inactive |
| C=C1CC[C@@H]2[C@](C)(CO)[C@H](O)CC[C@@]2(C)[C@@H]1/C=C/C1=CC(=C/c2ccc(F)cc2)/OC1=O | inactive | – | inactive | – | 19.5% | 32.5% | inactive | inactive | inactive | – | pIC50 [16]: 5.14; inhibition at 10 µM [9]: 34.2%; inhibition at 10 µM [10]: 39.5%; inhibition at 10 µM [4]: 34.3%; pIC50 [13]: 5.10 |
| C[C@@]12COCO[C@@H]1CC[C@]1(C)[C@@H]2CC[C@@]2(CO2)[C@H]1C/C=C1/C(=O)OC[C@H]1O | inactive | inactive | inactive | inactive | 18.4% | 32.9% | – | – | – | – | – |
| C[C@]1(CO)[C@H]2CC[C@@]3(CO3)[C@@H](/C=C/C3=CCOC3=O)[C@]2(C)CC[C@H]1O | inactive | inactive | inactive | inactive | – | – | – | – | – | inactive | inhibition at 10 µM [14]: 22.5% |
| C=C1CC[C@@H]2[C@](C)(CO)[C@H](O)CC[C@@]2(C)[C@@H]1/C=C/C1=CC(=C/c2ccc(Cl)cc2)/OC1=O | inactive | – | – | – | 16.4% | 25.3% | inactive | inactive | inactive | – | Activity [17]: Active; Activity [18]: Active; inhibition at 10 µM [8]: 41.4%; inhibition at 10 µM [9]: 40.7%; inhibition at 10 µM [10]: 48.1%; inhibition of growth at 10 µM [3]: 11.3%; inhibition at 10 µM [4]: 58.5%; pIC50 [13]: 5.37; Activity [19]: Active; Activity [20]: Active; Activity [21]: Active; Activity [22]: Active; pIC50 [23]: 5.34 |
| C=C1CC[C@@H]2[C@](C)(COC(=O)c3cccnc3)[C@H](OC(=O)c3cccnc3)CC[C@@]2(C)[C@@H]1/C=C/C1=CCOC1=O | inactive | inactive | inactive | inactive | – | – | – | – | – | inactive | inhibition at 10 µM [14]: 31.7% |
| C=C1CC[C@@H]2[C@](C)(COC(=O)c3cccnc3)[C@H](OC(=O)c3cccnc3)CC[C@@]2(C)[C@@H]1/C=C/C1=CC(=C/c2ccc(Cl)cc2)/OC1=O | inactive | – | inactive | inactive | – | – | – | – | – | inactive | pIC50 [24]: 5.09; inhibition at 10 µM [2]: 22.3% |
| C=C1CC[C@@H]2[C@](C)(CO)[C@H](O)CC[C@@]2(C)[C@@H]1/C=C/C1=CCOC1=O | inactive | inactive | inactive | inactive | – | – | – | – | – | inactive | inhibition at 10 µM [14]: 44.7% |
| C=C1CC[C@@H]2[C@](C)(CO)[C@H](O)CC[C@@]2(C)[C@@H]1/C=C/C1=CC(=C/c2ccccc2)/OC1=O | inactive | – | inactive | – | – | – | inactive | inactive | inactive | inactive | inhibition at 5 µM [25]: 45.3%; pIC50 [26]: 4.32; inhibition at 10 µM [2]: 30.3%; pIC50 [27]: 4.88; inhibition at 10 µM [14]: 44.8%; inhibition at 5 µM [28]: 45.1% |
| C=C1CC[C@@H]2[C@](C)(CO)[C@H](O)CC[C@@]2(C)[C@@H]1C/C=C1/C(=O)OC[C@H]1O [ANDROGRAPHOLIDE] | inactive | – | inactive | inactive | 34.5% | 44% | inactive | inactive | inactive | – | Activity [29]: Active; Activity [30]: inactive; inhibition [31]: inactive; inhibition at 10 µM [2]: 20.8%; inhibition [10]: inactive; inhibition [32]: Active; inhibition at 10 µM [33]: 17.7%; Activity [34]: Dose-dependent effect; inhibition at 5 µM [28]: 28.6%; inhibition [35]: inactive |
| C=C1CC[C@@H]2[C@](C)(COC(=O)CCC(=O)O)[C@H](OC(=O)CCC(=O)O)CC[C@@]2(C)[C@@H]1/C=C/C1=CC(=C/c2ccc(Cl)cc2)/OC1=O | inactive | inactive | inactive | inactive | – | – | – | – | – | inactive | inhibition [14]: inactive |
